From patent US8258145B2, “Method of treating brain cancer” (Myrexis, Inc., priority 2005, dated 2012)
Counter-ions that a name gives are not always drawn.

Tests used:
[1] = Determination of brain/plasma AUC ratio after tail vein injection; format: in vivo; details: mouse, intravenous, 0.0875 mg/mouse, mice, 0.10 mL of 0.875 mg/mL, AUC0-∞ from median plasma and brain concentrations
Procedure: For each test compound, forty five mice were injected via the tail vein with 0.10 mL of a 0.875 mg/mL solution of test compound dissolved in a formulation of 5% Cremophor, 5% Ethanol, and 90% D5W, or a formulation variation thereof. Five mice at each collection time point of approximately 0.05, 0.25, 0.50, 1.00, 2.00, 4.00, 8.00, 12.0 and 24.0 hours post dose were euthanized by halothane inhalation. Approximately 0.30 to 1.00 mL of blood from each animal was collected via cardiac puncture into tubes containing EDTA. Immediately after exsanguination, the whole brain from each animal was removed. The plasma and whole brain samples were frozen (˜20° C.) separately until analysis. Plasma and brain samples were allowed to thaw at room temperature on the day of sample analysis. Prior to homogenization, the brains were weighed and three volumes of sterile water were added. Plasma and homogenized brain samples were extracted using a protein precipitation and filtration method. Briefly, 0.20 mL acetonitrile was added to 0.10 mL of sample in a Varian Captiva 20 μm filtration plate. A vacuum was applied to the plate and filtrates were collected. Filtrates were injected onto LC-MS/MS ABI2000 QTrap LC-MS/MS equipped with a reverse phase liquid chromatography inlet. Peak areas of the m/z product ions of the test compounds were measured against the peak are of the m/z internal standard production. The range of quantitation for the assay was between 1.00 and 1000 ng/mL for both analytes.
Pharmacokinetic parameters (PK) for the test compounds were estimated on median plasma and brain concentrations using non-compartmental analysis in WinNonlin (Pharsight Corp., Mountain View, Calif.). The validation of this software program is reported in MPI-REP-PA-03.00. All values below the quantitation limit (BQL) of 1.00 ng/mL were excluded from PK analysis. The areas under the concentration-time curve (AUC0-∞) were calculated using a linear/log trapezoidal method.

T-47D = assay: Caspase cascade activation (caspase activity ratio and potency), fluorogenic N-(Ac-DEVD)-N'-ethoxycarbonyl-R110 substrate; format: cell-based, Human
Procedure: Human breast cancer cell lines T-47D and DLD-1 were grown according to media component mixtures designated by American Type Culture Collection+10% FCS (Invitrogen Corporation), in a 5% CO2−95% humidity incubator at 37° C. T-47D and DLD-1 cells were maintained at a cell density between 50 and 80% confluency at a cell density of 0.1 to 0.6×10^6 cells/mL. Cells were harvested at 600×g and resuspended at 0.65×10^6 cells/mL into appropriate media+10% FCS. An aliquot of 22.5 μL of cells was added to a well of a 384-well microtiter plate containing 2.5 μL of a 10% DMSO in RPMI-1640 media solution containing 0.16 to 100 μM of (2-chloro-quinazolin-4-yl)-(4-methoxy-phenyl)-methyl-amine or other test compound (0.016 to 10 μM final). An aliquot of 22.5 μL of cells was added to a well of a 384-well microtiter plate containing 2.5 μL of a 10% DMSO in RPMI-1640 media solution without test compound as the control sample. […] […] The samples were mixed by agitation and incubated at room temperature. Using a fluorescent plate reader (Model SPECTRAfluor Plus, Tecan), an initial reading (T=0) was made approximately 1-2 min after addition of the substrate solution, employing excitation at 485 nm and emission at 530 nm, to determine the background fluorescence of the control sample. After the 3 h incubation, the samples were read for fluorescence as above (T=3 h).
The Relative Fluorescence Unit values (RFU) were used to calculate the sample readings as follows: RFU(T=3h)−Control RFU(T=0)=Net RFU(T=3h)
The activity of caspase cascade activation was determined by the ratio of the net RFU value for (2-chloro-quinazolin-4-yl)-(4-methoxy-phenyl)-methyl-amine or other test compounds to that of control samples. The EC50 (nM) was determined by a sigmoidal dose-response calculation (Prism 3.0, GraphPad Software Inc.).

Row | Structure (SMILES) | Kp [1] | Caspase activity Ratio (net RFU of test compound to control) (T-47D; T-47D (24 hr)) | Caspase activity Ratio (net RFU of test compound to control) (T-47D; T-47D (48 hr))
1 | COc1ccc(N(C)c2nc(N(C)C(C)=O)nc3ccccc23)cc1 [Example 51, (4-Methoxy-phenyl)-(2-N-methylacetamido-quinazolin-4-yl)-methylamine] | 23.3 | 4.0 | 
2 | CNc1ccc(N(C)c2nc(C)nc3ccccc23)cc1 [Example 43, (2-Methyl-quinazolin-4-yl)-(4-methylamino-phenyl)-methylamine] | 14.1 | 3.4 | 
3 | COc1ccc(N(C)c2nc(OC)nc3ccccc23)cc1 [Example 11, (2-methoxy-quinazolin-4-yl)-(4-methoxyphenyl)-methylamine] | 6.14 |  | 
4 | Cc1nc(N(C)c2ccc(N(C)C)cc2)c2ccccc2n1 [Example 35, (4-Dimethylamino-phenyl)-(2-methyl-quinazolin-4-yl)-methyl-amine] | 16.1 | 8.5 | 
5 | COc1ccc(N(C)c2nc(C)nc3ccccc23)cc1 [Example 21, (4-Methoxy-phenyl)-methyl-(2-methyl-quinazolin-4-yl)-amine hydrochloride] | 19.7 | 9.0 | 7.4
6 | CNc1nc(N(C)c2ccc(OC)nc2)c2ccccc2n1 [Example 40, (2-Methylamino-quinazolin-4-yl)-(6-methoxy-pyridin-3-yl)-methyl-amine] | 10 | 10 | 
7 | COc1ccc(N(C)c2ccnc3ccccc23)cc1 [Example 17, (4-Methoxy-phenyl)-methyl-(quinolin-4-yl)-amine] | 9.16 | 7.2 | 12.5
8 | CNc1nc(N(C)c2ccc(OC)cc2)c2ccccc2n1 [Example 39, (2-Methylamino-quinazolin-4-yl)-(4-methoxy-phenyl)-methyl-amine] | 6.44 | 8.2 | 
9 | COc1ccc(N(C)c2nc(Cl)nc3ccccc23)cc1 [Example 1, (2-Chloro-quinazolin-4-yl)-(4-methoxy-phenyl)-methyl-amine] | 30 | 8.7 | 
10 | COc1ccc(N(C)c2nc(C)nc3ccccc23)cn1 [Example 33, (2-Methyl-quinazolin-4-yl)-(6-methoxy-pyridin-3-yl)-methyl-amine] | 5.82 |  | 
11 | COc1ccc(N(C)c2nc(C)nc3ccccc23)cc1F [Example 26, (3-Fluoro-4-methoxy-phenyl)-(2-methyl-quinazolin-4-yl)-methyl-amine] |  | 7.6 | 
12 | CC(=O)N(C)c1nc(N(C)c2ccc(N(C)C)cc2)c2ccccc2n1 [Example 48, [2-(N-Methyl-acetamido)-quinazolin-4-yl]-(4-dimethylaminophenyl)-methylamine] |  | 2.4 | 
13 | COc1ccc(N(C)c2nc(SC)nc3ccccc23)cc1 [Example 37, (2-Methylthio-quinazolin-4-yl)-(4-methoxy-phenyl)-methyl-amine] |  | 5.2 | 
14 | COc1ccc(N(C)c2nc(N(C)C)nc3ccccc23)cc1 [Example 38, (2-Dimethylamino-quinazolin-4-yl)-(4-methoxy-phenyl)-methyl-amine] |  | 8.2 | 
15 | COc1ccc(OC)c(N(C)c2nc(Cl)nc3ccccc23)c1 [Example 56, (2-Chloro-quinazolin-4-yl)-(2,5-dimethoxy-phenyl)-methyl-amine] |  | 8.6 | 14.6
16 | CN(c1ccccc1)c1nc(Cl)nc2ccccc12 [Example 55, (2-Chloro-quinazolin-4-yl)-phenyl-methyl-amine] |  | 6.7 | 
17 | COc1ccc(N(C)c2nc(N(C)C)nc3ccc([N+](=O)[O-])cc23)cc1 [Example 46, (2-Dimethylamino-6-nitroquinazolin-4-yl)-(4-methoxyphenyl)-methylamine] |  | 4.2 | 
18 | COc1ccc(N(C)c2nc(C)nc3ccc(N(C)C)cc23)cc1 [Example 52, (6-Dimethylamino-2-methyl-quinazolin-4-yl)-(4-methoxy-phenyl)-methylamine] |  | 6.4 | 
19 | COc1ccc(N(C)c2nc(Cl)nc3cccc(Cl)c23)cc1 [Example 30, (2,5-Dichloro-quinazolin-4-yl)-(4-methoxy-phenyl)-methyl-amine] |  | 10.6 | 
20 | COc1ccc(N(C)c2nc(Cl)nc3ccccc23)c(OC)c1 [Example 9, (2-Chloro-quinazolin-4-yl)-(2,4-dimethoxy-phenyl)-methyl-amine] |  |  | 12.4
21 | COc1ccc(N(C)c2nc(N3CCOCC3)nc3ccccc23)cc1 [Example 6, (4-Methoxy-phenyl)-methyl-(2-morpholin-4-yl-quinazolin-4-yl)-amine] |  | 5.7 | 11.5
